Measured values taken from patent US20020086862A1, “Novel compounds” (AstraZeneca AB, priority 1998, published 2002).

First: COC(=O)c1ccccc1-c1nn(Cc2ccccc2)c(=S)[nH]1 [Example 2, 2-[1,2-Dihydro-1-(phenylmethyl)-5-thioxo-3H-1,2,4-triazol-3-yl]benzoic acid, methyl ester]
Second: COc1ccccc1-c1nn(Cc2ccccc2)c(=S)[nH]1 [Example 18, 1,2-Dihydro-5-(2-methoxyphenyl)-2-(phenylmethyl)-3H-1,2,4-triazole-3-thione]
The melting point of the first is lower: 129 to 130 °C for the first, 142 to 143.5 °C for the second.

First: S=c1[nH]c(-c2ccc(Cl)s2)nn1Cc1ccccc1 [Example 4, 5-(5-Chloro-2-thienyl)-1,2-dihydro-2-(phenylmethyl)-3H-1,2,4-triazole-3-thione]
Second: S=c1[nH]c(-c2cccs2)nn1Cc1ccccc1 [Example 31, 1,2-Dihydro-2-(phenylmethyl)-5-(2-thienyl)-3H-1,2,4-triazole-3-thione]
The melting point of the first is lower: 79 to 80 °C for the first, 230 to 231 °C for the second.

Compared with S=c1[nH]c(-c2cccc(Cl)c2)nn1Cc1ccccc1 [Example 5, 5-(3-Chlorophenyl)-1,2-dihydro-2-(phenylmethyl)-3H-1,2,4-triazole-3-thione], S=c1[nH]c(-c2ccc(Cl)c(Cl)c2)nn1Cc1ccccc1 [Example 25, 5-(3,4-Dichlorophenyl)-1,2-dihydro-2-(phenylmethyl)-3H-1,2,4-triazole-3-thione] is higher in melting point: 175 to 176 °C for the first, 227 to 228 °C for the second.

First: O=[N+]([O-])c1ccccc1-c1nn(Cc2ccccc2)c(=S)[nH]1 [Example 6, 1,2-Dihydro-5-(2-nitrophenyl)-2-(phenylmethyl)-3H-1,2,4-triazole-3-thione]
Second: S=c1[nH]c(-c2ccccc2Br)nn1Cc1ccccc1 [Example 9, 5-(2-Bromophenyl)-1,2-dihydro-2-(phenylmethyl)-3H-1,2,4-triazole-3-thione]
The melting point of the first is higher: 147 to 148 °C for the first, 139 to 140 °C for the second.

Compared with N#Cc1ccc(-c2nn(Cc3ccccc3)c(=S)[nH]2)cc1 [Example 7, 5-(4-Cyanophenyl)-1,2-dihydro-2-(phenylmethyl)-3H-1,2,4-triazole-3-thione], Cc1ccc(-c2nn(Cc3ccccc3)c(=S)[nH]2)cc1 [Example 24, 1,2-Dihydro-5-(4-methylphenyl)-2-(phenylmethyl)-3H-1,2,4-triazole-3-thione] is lower in melting point: 237 to 238 °C for the first, 234 to 235 °C for the second.

Compared with S=c1[nH]c(-c2cccc(Cl)c2Cl)nn1Cc1ccccc1 [Example 8, 5-(2,3-Dichlorophenyl)-1,2-dihydro-2-(phenylmethyl)-3H-1,2,4-triazole-3-thione], S=c1[nH]c(-c2ccc(Cl)cc2Cl)nn1Cc1ccccc1 [Example 27, 5-(2,4-Dichlorophenyl)-1,2-dihydro-2-(phenylmethyl)-3H-1,2,4-triazole-3-thione] is lower in melting point: 179 to 180 °C for the first, 169 to 170 °C for the second.

Compared with FC(F)(F)c1cccc(-c2nn(Cc3ccccc3)c(=S)[nH]2)c1 [Example 10, 1,2-Dihydro-2-(phenylmethyl)-5-[3-(trifluoromethyl)phenyl]-3H-1,2,4-triazole-3-thione], FC(F)(F)c1ccc(-c2nn(Cc3ccccc3)c(=S)[nH]2)cc1 [Example 21, 1,2-Dihydro-2-(phenylmethyl)-5-[4-(trifluoromethyl)phenyl]-3H-1,2,4-triazole-3-thione] is lower in melting point: 209 to 210 °C for the first, 201 to 203 °C for the second.

First: S=c1[nH]c(-c2ccco2)nn1Cc1ccccc1 [Example 11, 5-(2-Furanyl)-1,2-dihydro-2-(phenylmethyl)-3H-1,2,4-triazole-3-thione]
Second: S=c1[nH]c(-c2cccnc2Cl)nn1Cc1ccccc1 [Example 16, 5-(2-Chloro-3-pyridinyl)-1,2-dihydro-2-(phenylmethyl)-3H-1,2,4-triazole-3-thione]
The melting point of the first is higher: 212 to 213 °C for the first, 155 to 156 °C for the second.

First: COc1ccc(Br)c(-c2nn(Cc3ccccc3)c(=S)[nH]2)c1 [Example 12, 5-(2-Bromo-5-methoxyphenyl)-1,2-dihydro-2-(phenylmethyl)-3H-1,2,4-triazole-3-thione]
Second: COc1ccc(-c2nn(Cc3ccccc3)c(=S)[nH]2)cc1 [Example 23, 1,2-Dihydro-5-(4-methoxyphenyl)-2-(phenylmethyl)-3H-1,2,4-triazole-3-thione]
The melting point of the first is lower: 154 to 155 °C for the first, 235 to 237 °C for the second.

Compared with S=c1[nH]c(-c2cc(Cl)sc2Cl)nn1Cc1ccccc1 [Example 13, 5-(2,5-Dichloro-3-thienyl)-1,2-dihydro-2-(phenylmethyl)-3H-1,2,4-triazole-3-thione], Fc1ccc(-c2nn(Cc3ccccc3)c(=S)[nH]2)c(Cl)c1 [Example 22, 5-(2-Chloro-4-fluorophenyl)-1,2-dihydro-2-(phenylmethyl)-3H-1,2,4-triazole-3-thione] is lower in melting point: 160 to 162 °C for the first, 135 to 136 °C for the second.

Compared with S=c1[nH]c(-c2ccncc2)nn1Cc1ccccc1 [Example 14, 1,2-Dihydro-2-(phenylmethyl)-5-(4-pyridinyl)-3H-1,2,4-triazole-3-thione], S=c1[nH]c(-c2ccc(Br)cc2)nn1Cc1ccccc1 [Example 26, 5-(4-Bromophenyl)-1,2-dihydro-2-(phenylmethyl)-3H-1,2,4-triazole-3-thione] is higher in melting point: 160 to 162 °C for the first, 250 to 251 °C for the second.

First: S=c1[nH]c(-c2ccc(-c3ccccc3)cc2)nn1Cc1ccccc1 [Example 15, 1,2-Dihydro-2-(phenylmethyl)-5-(4-phenylphenyl)-3H-1,2,4-triazole-3-thione]
Second: S=c1[nH]c(-c2cccc(Oc3ccccc3)c2)nn1Cc1ccccc1 [Example 30, 1,2-Dihydro-5-(3-phenoxyphenyl)-2-(phenylmethyl)-3H-1,2,4-triazole-3-thione]
The melting point of the first is higher: 249 to 250 °C for the first, 200 to 202 °C for the second.

First: Fc1ccccc1-c1nn(Cc2ccccc2)c(=S)[nH]1 [Example 17, 5-(2-Fluorophenyl)-1,2-dihydro-2-(phenylmethyl)-3H-1,2,4-triazole-3-thione]
Second: Cc1ccccc1-c1nn(Cc2ccccc2)c(=S)[nH]1 [Example 19, 1,2-Dihydro-5-(2-methylphenyl)-2-(phenylmethyl)-3H-1,2,4-triazole-3-thione]
The melting point of the first is higher: 180 to 183 °C for the first, 150 to 153 °C for the second.

Compared with S=c1[nH]c(-c2cc(Cl)cc(Cl)c2)nn1Cc1ccccc1 [Example 29, 5-(3,5-Dichlorophenyl)-1,2-dihydro-2-(phenylmethyl)-3H-1,2,4-triazole-3-thione], S=c1[nH]c(-c2ccccc2Cl)nn1Cc1cccc(Cl)c1 [Example 42, 5-(2-Chlorophenyl)-2-[(3-chlorophenyl)methyl]-1,2-dihydro-3H-1,2,4-triazole-3-thione] is lower in melting point: 205 to 212 °C for the first, 143 to 143.5 °C for the second.

First: S=c1[nH]c(-c2ccc(Cl)cc2Cl)nn1Cc1cccc(Cl)c1 [Example 32, 2-[(3-Chlorophenyl)methyl]-5-(2,4-dichlorophenyl)-1,2-dihydro-3H-1,2,4-triazole-3-thione]
Second: Cc1cccc(Cn2nc(-c3ccc(Cl)cc3Cl)[nH]c2=S)c1 [Example 43, 5-(2,4-Dichlorophenyl)-1,2-dihydro-2-[(3-methylphenyl)methyl]-3H-1,2,4-triazole-3-thione]
The melting point of the first is higher: 190 to 191 °C for the first, 177 to 178 °C for the second.

First: COc1cccc(Cn2nc(-c3ccc(Cl)cc3Cl)[nH]c2=S)c1 [Example 33, 5-(2,4-Dichlorophenyl)-1,2-dihydro-2-[(3-methoxyphenyl)methyl]-3H-1,2,4-triazole-3-thione]
Second: S=c1[nH]c(-c2ccc(Cl)cc2Cl)nn1Cc1cccc(Oc2ccccc2)c1 [Example 34, 5-(2,4-Dichlorophenyl)-1,2-dihydro-2-[(3-phenoxyphenyl)methyl]-3H-1,2,4-triazole-3-thione]
The melting point of the first is lower: 173 to 174 °C for the first, 180 to 181 °C for the second.

Compared with Oc1cccc(Cn2nc(-c3ccccc3)[nH]c2=S)c1 [Example 35, 1,2-Dihydro-2-[(3-hydroxyphenyl)methyl]-5-phenyl-3H-1,2,4-triazole-3-thione], CSc1ccccc1-c1nn(Cc2ccccc2)c(=S)[nH]1 [Example 38, 1,2-Dihydro-5-[2-(methylthio)phenyl]-2-(phenylmethyl)-3H-1,2,4-triazole-3-thione] is lower in melting point: 233 to 235 °C for the first, 170 to 171 °C for the second.

First: S=c1[nH]c(-c2ccccc2Oc2ccccc2)nn1Cc1ccccc1 [Example 39, 1,2-Dihydro-5-[2-(phenoxy)phenyl]-2-(phenylmethyl)-3H-1,2,4-triazole-3-thione]
Second: O=C(c1ccccc1)c1cccc(-c2nn(Cc3ccccc3)c(=S)[nH]2)c1 [Example 40, 1,2-Dihydro-5-(3-(phenylcarbonyl)phenyl)-2-(phenylmethyl)-3H-1,2,4-triazole-3-thione]
The melting point of the first is higher: 158 to 159 °C for the first, 154 to 155 °C for the second.

First: S=c1[nH]c(-c2ccc3ccccc3c2Br)nn1Cc1ccccc1 [Example 41, 1,2-Dihydro-5-(1-bromo-2-naphthalenyl)-2-(phenylmethyl)-3H-1,2,4-triazole-3-thione]
Second: S=c1[nH]c(-c2ccc(Cl)cc2Cl)nn1CCc1ccccc1 [Example 44, 5-(2,4-Dichlorophenyl)-1,2-dihydro-2-(2-phenylethyl)-3H-1,2,4-triazole-3-thione]
The melting point of the first is lower: 168 to 170 °C for the first, 179 to 182 °C for the second.

First: S=c1[nH]c(-c2ccc(Cl)cc2Cl)nn1Cc1ccc(Cl)cc1 [Example 45, 2-[(4-Chlorophenyl)methyl]-5-(2,4-dichlorophenyl)-1,2-dihydro-3H-1,2,4-triazole-3-thione]
Second: S=c1[nH]c(-c2ccc(Br)cc2)nn1Cc1cccc(Cl)c1 [Example 46, 5-(4-Bromophenyl)-2-[(3-chlorophenyl)methyl]-1,2-dihydro-3H-1,2,4-triazole-3-thione]
The melting point of the first is lower: 205 to 206 °C for the first, 242 to 243 °C for the second.

Compared with Cc1ccc(-c2nn(Cc3cccc(Cl)c3)c(=S)[nH]2)cc1 [Example 47, 2-[(3-Chlorophenyl)methyl]-5-(4-methylphenyl)-1,2-dihydro-3H-1,2,4-triazole-3-thione], COc1ccc(-c2nn(Cc3cccc(Cl)c3)c(=S)[nH]2)cc1 [Example 48, 2-[(3-Chlorophenyl)methyl]-5-(4-methoxyphenyl)-1,2-dihydro-3H-1,2,4-triazole-3-thione] is higher in melting point: 207 to 208 °C for the first, 231 to 233 °C for the second.

With COC(=O)c1ccc(-c2nn(Cc3ccccc3)c(=S)[nH]2)cc1 [Example 3, 4-[1,2-Dihydro-1-(phenylmethyl)-5-thioxo-3H-1,2,4-triazol-3-yl]benzoic acid, methyl ester] the melting point was > 215 °C.
